Where two headings read alike, the source gives them in different places.

Assay [1] addresses PCP receptors. The format is binding. The settings on record: 1 nM 3H-TCP, whole rat brain membranes, 1 hour incubation; value ± SEM; read-out: Ki apparent.
The subject of assay [2] is Male Sprague-Dawley rats. The assay can be described thus: Behavioral assay (stereotyped behavior, PCP rating scale). Type of assay: in vivo. Particulars: 95% confidence intervals in parenthesis; for ED50: Rattus norvegicus. On the procedure: Nine compounds were tested in comparison with PCP and TCP by an in vivo assay which determined stereotypic behavior in rats treated with the compounds. Male Sprague-Dawley rats weighing 200 to 250 g were used in the behavioral experiments. Each rat was used only once. Rats were anesthetized lightly with ether before a 20-gauge needle was used to make a hole in the rat's skull for i.c.v. injection of drugs at a later date. These rats were allowed to recover for at least 1 day before being used in the behavioral assays. On the day of the experiment, rats were placed individually into plastic rat cages and allowed at least 1 hr to acclimate before testing. Drugs were administered to rats in a random, single-blind fashion.
Dose-response curves for each treatment were determined at the time of maximal behavioral effect. Peak effects were found 5 min after i.c.v. administration of PCP (25-20000 nmol/rat). […] A rating of 5 in the PCP-rating scale was considered as complete stereotyped behavior, that is, a 100% response. At least 21 rats (at least seven rats/dose) were used to determine each dose-response curve and ED₅₀ values. ED₅₀ values and dose-response curves were evaluated using a computerized Finney assay [Statistical Methods In Biological Assays, 2nd Edn., Hatner Pub. Co., New York (1964)].
The ability of the tested compounds to induce stereotyped behavior was assessed at 2.5, 5 and 10 minutes and thereafter every 5 min up to 1 hr after i.c.v., i.p., or s.c. administration.

For assay [3], the system named is Male Mongolian gerbils. The assay can be described thus: Forebrain ischemia assay (carotid occlusion, CA1 cell loss). Type of assay: in vivo. The settings on record: 30 mg/kg i.p. 30 minutes prior to carotid occlusion; 7 days; vs saline injected gerbils; Mann-Whitney U test p<0.01. On the procedure:
Male Mongolian gerbils, 50-70 gm, were used as subjects. Compound No. 1 (30 mg/kg) was injected i.p. 30 minutes prior to carotid occlusion into 6 gerbils. In preparation for surgical procedures, the animals were lightly anesthetized with methoxyflurane and placed upside down on a heated pad with their snout within a nosecone. Nitrous oxide (70%): oxygen (30%) plus 0.5% halothane was circulated through the nosecone to provide continuous anesthesia throughout the surgical procedure. A midline incision was made in the neck and the carotid arteries were exposed. A length of suture thread was placed under each carotid. The thread was then tightened around each carotid and pressure applied to the thread to insure flow was occluded. Flow was occluded for 4-5 minutes and then the thread was removed. The carotids were visually inspected to confirm that reflow had occurred. The wound was then closed with autoclips and the gerbils allowed to recover. Following surgery, the gerbils were kept alive for 7 days. They were anesthetized with 100 mg/kg sodium pentobarbital and perfused transcardially with saline (with heparin) followed by buffered formalin. The brain was removed, trimmed and prepared for histological processing. Sections (10 microns) were stained with thionin. […]

For assay [4], the system named is hippocampal neurons. The assay can be described thus: Chronic hypoxic insult assay (MTT neuronal survival). The format is cell-based, Sprague-Dawley rats. The settings on record: for Optical Density: 6 hours anaerobic chamber, then 2 hours normal O2, MTT 570 nm, ± SEM, untreated control 0.058, hypoxia alone 0.020; for Maximum protection of neurons from hypoxic insult was obtained with: concentration giving maximum protection. On the procedure: Compound Nos. 4 and 5 were tested for their ability to protect hippocampal neurons from hypoxia-induced cell death. Cultures of hippocampal neurons were prepared from embryonic day 17 Sprague-Dawley rats. The hippocampi were dissociated into a single cell suspension by incubation with 0.25% trypsin, […] DNase followed by gentle trituration through a Pasteur pipet. The cells were plated in a polylysine-coated 96-well plate and maintained in a chemically defined medium until use. The cells were grown for 2 to 3 weeks in 5% CO₂-in-air humidified environment at 36°C to establish a thick network of neuronal processes with numerous spontaneously active synapses. Exposure to hypoxic/anoxic environment was accomplished by placing the cultures in an anaerobic chamber, and flushing it with a mixture of 95% N₂+ 5% CO₂ gas to rapidly drop the O₂ tension to near zero. The O₂ tension was maintained at near zero using a disposable H₂ + CO₂ generator envelope with palladium catalyst. Compound No. 4 and Compound No. 5 were added to the culture medium prior to incubation in the anaerobic chamber and maintained there for 6 hours. Following 2 hours of exposure to normal O₂ tension, the cultures were processed for morphological and quantitive biochemical neuronal cell viability assays.
The neuronal survival assay utilized the compound MTT [(3-(4,5-dimethylthiazol-2-yl)-2,5-diphenyl tetrazolium bromide)], a pale yellow substrate that is cleaved by the mitochondrial enzyme succinate-dehydrogenase to yield a dark blue formazan product. This process requires active mitochondria, present only in live cells. Cultures of hippocampal neurons grown in 96-well plates were incubated with 1 mg/ml MTT at 36°C in a 10% CO₂-in-air incubator for 30-60 min. At the end of the incubation, a dark blue precipitate outlined only viable cells. The precipitate was then solubilized using 0.08 N HCl/isopropanol mixture and the absorbance measured with an ELISA plate reader (Dynatech MR600) using a test wavelength of 570 nm and a reference wavelength of 630 nm. The resulting optical density is directly proportional to the number of viable cells.

Assay [5] concerns hippocampal neurons. Kind of assay: Acute azide toxicity assay (MTT neuronal survival). The format is cell-based, Sprague-Dawley rats. Particulars: 10 µM sodium azide for 1 hour.
Where [6] appears, read: ip, read-out: Stereotyped Behavior ED₅₀ i.p.
Where [7] appears, read: sc, read-out: Stereotyped Behavior ED₅₀ s.c.

With `c1ccc(C(N2CCCCC2)C2(c3ccccc3)CC2)cc1` (racemic) [Compound No. 23], in assay [1], the Ki was above 30000 nM. Turning to `c1ccc(CC(c2ccccc2)N2CCCCC2)cc1` (racemic) [Compound No. 1], the ED50 stood at 2 mg/kg in assay [2] (setting [6]) and 2.9 mg/kg in assay [2] (setting [7]). Besides, the “cell loss in CA1” value in assay [3] is recorded as “significantly reduced”. With `Fc1ccc(C(Cc2ccccc2)N2CCCCC2)cc1` (racemic) [Compound No. 27], the Ki in assay [1] came to 220 ± 10 nM.

`c1ccc(CC(c2cccc3ccccc23)N2CCCCC2)cc1` (racemic) [Compound No. 33]: the Ki in assay [1] worked out at 6000 ± 1700 nM. For `c1ccc(CC(c2ccccc2)N2CCCCC2)cc1` (single isomer, unassigned) [Compound No. 3], the “Stereotyped Behavior ED₅₀ s.c.” value in assay [2] is on record as above 40 mg/kg.

On to `CC1CC(C)CN(C(Cc2ccccc2)c2ccccc2)C1` (racemic) [Compound No. 24], for which the Ki in assay [1] turned out to be 850 ± 40 nM. Take `c1ccc(CC(c2cccs2)N2CCCCC2)cc1` (racemic) [Compound No. 5]: the “Optical Density” value in assay [4] (Hypoxia + 10 µM compound) came out at 0.047 ± 0.01. Also, in assay [4], the “Maximum protection of neurons from hypoxic insult was obtained with” value is listed as 10 µM. The ED50 in assay [2] (setting [7]) is 3.5 mg/kg. Consider `COc1ccc(C(Cc2ccccc2)N2CCCCC2)cc1` (racemic) [Compound No. 22], for which the Ki in assay [1] amounted to 8100 ± 500 nM. For the compound `Cc1cccc(C(Cc2ccccc2)N2CCCCC2)c1` (racemic) [Compound No. 29], the Ki in assay [1] came out at 110 ± 30 nM.

Consider `c1ccc(CC(c2ccccc2)N2CCCC2)cc1` (racemic) [Compound No. 20], for which the Ki in assay [1] was 16000 ± 2600 nM. Further, in assay [2] (setting [7]), the ED50 was 7.8 mg/kg. As for `c1ccc(CC(c2ccco2)N2CCCCC2)cc1` (racemic) [Compound No. 30], in assay [1], the Ki amounted to 400 ± 10 nM. Turning to `c1ccc(CC(c2ccccc2)N2CCCCC2)cc1` (single isomer, unassigned) [Compound No. 4], the “Optical Density” value in assay [4] (Hypoxia + 1 µM compound) came out at 0.046 ± 0.01. The “Maximum protection of neurons from hypoxic insult was obtained with” value in assay [4] is 1 µM. Besides, in assay [5] (100 µM compound), the “protection of neurons from sodium azide toxicity” value was “significant protection”. Further, the “Optical Density” value in assay [5] (Sodium azide + 100 µM compound, MTT, ± SEM, control 0.123, sodium azide alone 0.075) came to 0.133 ± 0.01. Also, the ED50 in assay [2] (setting [6]) came to 2.1 mg/kg. Also, in assay [2], the “Stereotyped Behavior ED₅₀ i.c.v.” value is 120(100-140) nmoles/rat and the “Stereotyped Behavior ED₅₀ s.c.” value is reported as 0.78(0.60-1.0) mg/kg. For `OC(c1ccccc1)C(c1ccccc1)N1CCCCC1` (racemic) [Compound No. 13], the ED50 in assay [2] (setting [7]) came out at 11 mg/kg. With `C1=CCN(C(Cc2ccccc2)c2ccccc2)CC1` (racemic) [Compound No. 6], the “Stereotyped Behavior ED₅₀ i.c.v.” value in assay [2] is on record as 100(81-120) nmoles/rat. Turning to `c1ccc(C2(N3CCCCC3)CCCCC2)cc1` [PCP, Phencyclidine, reference compound], in assay [2], the “Stereotyped Behavior ED₅₀ i.c.v.” value was 150(120-170) nmoles/rat. As to `CC(C)(c1ccccc1)C(c1cccs1)N1CCCCC1` (racemic) [Compound No. 25], the Ki in assay [1] is above 30000 nM. The same measure, in the same setting: the result for `Clc1ccccc1C(Cc1ccccc1)N1CCCCC1` (racemic) [Compound No. 31] reads 0.19 ± 0.11 nM. As for `C1=CCN(C(Cc2ccccc2)c2cccs2)CC1` (racemic) [Compound No. 15], in assay [2] (setting [7]), the ED50 came to 1.7 mg/kg.

On to `COc1cccc(C(Cc2ccccc2)N2CCCCC2)c1` (racemic) [Compound No. 26], for which the Ki in assay [1] amounted to 100 ± 20 nM. For the compound `CC(C)(c1ccccc1)C(c1ccccc1)N1CCCCC1` (racemic) [Compound No. 28], in assay [1], the Ki was determined as 12000 ± 1000 nM. Same read-out and setting: the result for `Cc1ccc(C(Cc2ccccc2)N2CCCCC2)cc1` (racemic) [Compound No. 21] reads 1800 ± 300 nM.

Consider `CC(C)C(c1ccccc1)C(c1ccccc1)N1CCCCC1` (racemic) [Compound No. 12], for which, in assay [2] (setting [7]), the ED50 is above 50 mg/kg. Consider `COc1ccccc1C(Cc1ccccc1)N1CCCCC1` (racemic) [Compound No. 32], for which, in assay [1], the Ki amounted to 170 ± 10 nM.

Source of the values: patent EP0346791B1, “1,2-diarylethylamines for treatment of neurotoxic injury” (priority 1988, dated 1989).
